We go through 1 molecule from ChEMBL document CHEMBL5346977, “Discovery of Novel d-(+)-Biotin-Conjugated Resorcinol Dibenzyl Ether-Based PD-L1 Inhibitors for Targeted Cancer Immunotherapy” (J Med Chem, 2023).

The nature of series [1]: Drug concentration in tumor of C57BL/6 mouse implanted with mouse B16-F10 cells at 50 mg/kg, ip measured after 2 hrs by UPLC-MS/MS analysis. In kind it is ADME, organism-based, Neoplasm. The conditions noted are these: read-out: Ct.
Series [2] in a line: AUC (0 to t) in Sprague-Dawley rat at 1 mg/kg, iv administered as single dose and measured after 48 hrs by HPLC-MS/MS analysis. The class given is ADME, organism-based. Also on record: dose 1 mg/kg, time 48 hrs, route iv. The conditions noted are these: in vivo.
Series [3] can be described thus: Tmax in Sprague-Dawley rat at 20 mg/kg, po measured after 48 hrs by HPLC-MS/MS analysis. The class given is ADME, organism-based. The conditions noted are these: in vivo.
Series [4] can be described thus: Clearance in C57BL/6 mouse at 50 mg/kg, ip measured after 4 hrs by HPLC-MS/MS analysis. In kind it is ADME, organism-based. The settings on record: in vivo.
A short description of series [5]: Toxicity in allogenic BALB/c mouse implanted with mouse B16-F10 cells assessed as severe crypt necrosis in colon at 50 mg/kg, ip by H&E staining based analysis. The class given is organism-based. The conditions noted are these: in vivo.
For series [6], the target named is T1, Programmed cell death protein 1/Programmed cell death 1 ligand 1 (Homo sapiens) (UniProt Q15116+Q9NZQ7). Description: Inhibition of GST-tagged PD-1 (unknown origin)/His-tagged PD-L1 (unknown origin) interaction at 10 nM by HTRF binding assay relative to control. In kind it is protein-complex assay.
The nature of series [7]: Initial drug concentration in C57BL/6 mouse at 50 mg/kg, ip measured after 4 hrs by HPLC-MS/MS analysis. In kind it is ADME, organism-based. The conditions noted are these: in vivo.
Series [8] can be described thus: Drug concentration in liver of C57BL/6 mouse implanted with mouse B16-F10 cells at 50 mg/kg, ip measured after 1 hrs by UPLC-MS/MS analysis. The conditions noted are these: read-out: Ct. In kind it is ADME, organism-based.
In another series the test system is Jurkat. Description: Cytotoxicity against human Jurkat T cells assessed as reduction in cell viability at 1.1 to 10 uM incubated for 48 hrs by CCK-8 assay. In kind it is toxicity, cell-based. The conditions noted are these: dose 1.1-10 µM. On the technique in general: Formazan colour is commonly taken as a measure of viable cells.
Series [9] is described as follows: Half-life in Sprague-Dawley rat at 1 mg/kg, iv administered as single dose and measured after 48 hrs by HPLC-MS/MS analysis. The conditions noted are these: in vivo. In kind it is ADME, organism-based.
Series [10] is described as follows: Drug concentration in liver of C57BL/6 mouse implanted with mouse B16-F10 cells at 50 mg/kg, ip measured after 4 hrs by UPLC-MS/MS analysis. The class given is ADME, organism-based. The settings on record: read-out: Ct.
The target of series [11] is T1, Programmed cell death protein 1/Programmed cell death 1 ligand 1 (Homo sapiens). Description: Inhibition of GST-tagged PD-1 (unknown origin)/His-tagged PD-L1 (unknown origin) interaction at 100 nM by HTRF binding assay relative to control. The class given is protein-complex assay. (In general: In TR-FRET formats the signal depends on donor and acceptor labels being close together.)

The subject of another series is B16-F10. Kind of series: Antitumor activity against mouse B16-F10 cells implanted in BALB/c mouse assessed as reduction in tumor volume at 50 mg/kg, ip administered once daily for 14 days relative to control. In kind it is functional. Also on record: scale not given: the % may be the effect or the level left. The conditions noted are these: time 14 day.

The Tmax is the time at which the peak concentration occurs. Broadly, the inhibition is the relative decrease from the control value, in per cent. Usually half-life stands for the time in which the quantity being followed falls by half. `Cc1c(COc2cc(OCc3cccc(C#N)c3)c(CN3CCCCC3C(=O)NCCNC(=O)CCCC[C@@H]3SC[C@@H]4NC(=O)N[C@@H]43)cc2Cl)cccc1-c1ccccc1` (stereo partly drawn): in series [1], the concentration at 2 h was 404 ng/mL. The molecule further had an AUCt in series [2] of 719 ng·h/mL. Also, in series [3], the Tmax was 3.3 h. Moreover, in series [4], the CL stood at 7.353 L/h/kg. In addition, the Activity result in [5] was “Non-Toxic”; in the series with Jurkat, “Non-Toxic”; in the series with B16-F10, 76.5%. Also, the values for the inhibition in series [6] and in [11] were 103% and 104%, respectively. For the same molecule, the C0 in series [7] came out at 570.948 µg/L. Besides, in [8], the concentration at 1 h stood at 1980 ng/mL. The half-life in [9] is 1090 min. In addition, in series [10], the concentration at 4 h turned out to be 3650 ng/mL.
